Source: article PMC7486383, “Protrudin and PDZD8 contribute to neuronal integrity by promoting lipid extraction required for endosome maturation” (Nature Communications, 2020)
Counter-ions that a name gives are not always drawn.

Columns and labels:
[1] = molecular target: T1, GST-PDZD8(ΔTM) (Mus musculus, UniProt B9EJ80); experiment: liposome-FRET lipid extraction assay; assay type: binding; details: labelled compound; donor liposomes PC/PE/rhodamine-PE; 25 °C
T1 sequence (B9EJ80 25-1147 limits assumed): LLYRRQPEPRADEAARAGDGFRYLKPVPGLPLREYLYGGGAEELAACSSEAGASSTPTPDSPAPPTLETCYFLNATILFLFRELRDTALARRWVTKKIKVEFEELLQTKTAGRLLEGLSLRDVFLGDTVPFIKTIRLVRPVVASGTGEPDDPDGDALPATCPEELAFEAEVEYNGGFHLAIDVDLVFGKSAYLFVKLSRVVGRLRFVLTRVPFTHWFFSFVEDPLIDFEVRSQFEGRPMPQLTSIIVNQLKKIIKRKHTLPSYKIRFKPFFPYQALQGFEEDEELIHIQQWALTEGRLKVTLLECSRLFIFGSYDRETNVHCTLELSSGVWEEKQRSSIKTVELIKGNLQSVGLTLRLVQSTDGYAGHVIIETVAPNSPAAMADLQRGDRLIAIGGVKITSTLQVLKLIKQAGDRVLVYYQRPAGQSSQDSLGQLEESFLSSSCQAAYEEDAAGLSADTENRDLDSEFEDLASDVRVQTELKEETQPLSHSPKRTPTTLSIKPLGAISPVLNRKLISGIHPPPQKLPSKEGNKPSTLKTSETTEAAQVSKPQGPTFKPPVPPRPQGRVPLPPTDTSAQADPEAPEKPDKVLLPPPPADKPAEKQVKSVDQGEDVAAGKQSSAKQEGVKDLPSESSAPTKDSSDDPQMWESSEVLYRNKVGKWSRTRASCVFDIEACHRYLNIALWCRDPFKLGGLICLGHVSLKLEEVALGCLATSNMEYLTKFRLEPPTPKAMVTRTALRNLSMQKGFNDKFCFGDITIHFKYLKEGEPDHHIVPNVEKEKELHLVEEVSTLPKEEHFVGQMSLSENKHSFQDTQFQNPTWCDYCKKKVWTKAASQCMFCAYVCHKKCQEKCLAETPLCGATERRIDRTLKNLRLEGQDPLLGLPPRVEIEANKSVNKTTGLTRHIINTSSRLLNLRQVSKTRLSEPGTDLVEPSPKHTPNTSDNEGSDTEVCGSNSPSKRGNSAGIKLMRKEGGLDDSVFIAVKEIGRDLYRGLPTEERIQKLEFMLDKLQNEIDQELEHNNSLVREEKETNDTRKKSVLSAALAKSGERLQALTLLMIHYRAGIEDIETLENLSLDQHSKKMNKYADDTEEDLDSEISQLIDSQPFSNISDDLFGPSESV

[2] = molecular target: T2, PDZD8(SMP-PDZ) (Mus musculus, UniProt B9EJ80); experiment: liposome-FRET lipid extraction assay; assay type: binding; details: labelled compound; donor liposomes PC/PE/rhodamine-PE; 25 °C
T2 sequence (B9EJ80 87-448 limits assumed): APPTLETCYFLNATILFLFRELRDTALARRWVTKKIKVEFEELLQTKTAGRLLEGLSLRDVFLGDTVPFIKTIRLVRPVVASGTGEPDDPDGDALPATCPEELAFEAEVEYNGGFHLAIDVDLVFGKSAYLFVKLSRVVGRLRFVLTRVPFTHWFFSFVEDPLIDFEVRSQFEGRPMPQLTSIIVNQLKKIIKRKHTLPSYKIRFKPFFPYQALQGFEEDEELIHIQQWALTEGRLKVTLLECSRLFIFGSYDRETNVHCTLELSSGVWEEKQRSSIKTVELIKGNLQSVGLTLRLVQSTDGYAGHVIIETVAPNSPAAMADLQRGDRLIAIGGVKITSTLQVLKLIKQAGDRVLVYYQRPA

Structure (SMILES) | initial velocity of lipid extraction [1] | initial velocity of lipid extraction [2]
CCCCCCCCCCCCC/C=C/[C@@H](O)[C@H](CO)NC(=O)CCCCCNc1ccc([N+](=O)[O-])c2nonc12 [C6-NBD-ceramide, N-{6-[(7-nitro-2-1,3-benzoxadiazol-4-yl)amino]hexanoyl}-D-erythro-sphingosine] | PDZD8(ΔTM) also showed high extraction activity for ceramide | –
CCCCCCCCCCCCCCCC(=O)OC[C@H](COP(=O)(O)OC[C@H](N)C(=O)O)OC(=O)CCCCCCCCCCCNc1ccc([N+](=O)[O-])c2nonc12 [NBD-PS, 1-palmitoyl-2-{12-[(7-nitro-2-1,3-benzoxadiazol-4-yl)amino]dodecanoyl}-sn-glycero-3-phosphoserine (ammonium salt)] | with the initial velocity of lipid extraction being greatest for PS | The activity of PDZD8(SMP-PDZ) was also about half that of PDZD8(ΔTM)
